Values joined by “and” are separate entries in the source; they are usually repeats but may differ in a detail not shown here. Identical values can stand only once. Where a SMILES comes first, the peptide text is derived from it. [ ]: non-standard residue; d: D form. Hyp = O=C(O)[C@@H]1C[C@@H](O)CN1

One experiment has as its system Leptin. Description: Example 8 main study Luminex, LPS hPBMCs: Leptin. The format is cell-based, human. As to conditions: PBMC + LPS(5 ug/ml). The procedure: (§1) Human PBMCs were pretreated with YY-101, YDE-011, YDE-043 or reference compound; Xiidra® at various concentration (ranging from […] to 500 nM) for 2 h before stimulation. An equal volume of 0.5% DMSO was used as a vehicle control. Then, the cells were treated with LPS at 5 ug/ml, which was selected based on the pilot study. The supernatants from treated cells were harvested at 24 h and placed in a 96 well for Luminex cytokine & chemokine profiling using a Luminex 200 multiplex assay (Luminex; R&D system, USA).
(§2) The main study arm with triplicate wells per group in a 24-well plate: • 1. Blank • 2. PBMC: 0.5% DMSO • 3. PBMC+LPS (5 ug/ml) • 4. PBMC+YY-101 500 nM • 5. PBMC+YY-101 50 nM • 6. PBMC+YY-101 5 nM • 7. PBMC+YY-101 0.5 nM • 8. PBMC+LPS (5 ug/ml)+Xiidra® 500 nM • 9. PBMC+LPS (5 ug/ml)+Xiidra® 50 nM • 10. PBMC+LPS (5 ug/ml)+Xiidra® 5 nM • 11. PBMC+LPS (5 ug/ml)+Xiidra® 0.5 nM • 12. PBMC+LPS (5 ug/ml)+Xiidra® 0.05 nM • 13. PBMC+LPS (5 ug/ml)+Xiidra® 0.005 nM • 14. PBMC+LPS (5 ug/ml)+YY-101 500 nM • 15. PBMC+LPS (5 ug/ml)+YY-101 50 nM • 16. PBMC+LPS (5 ug/ml)+YY-101 5 nM • 17. PBMC+LPS (5 ug/ml)+YY-101 0.5 nM • 18. PBMC+LPS (5 ug/ml)+YY-101 0.05 nM • 19. PBMC+LPS (5 ug/ml)+YY-101 0.005 nM • 20. PBMC+LPS (5 ug/ml)+YDE-011 500 nM • 21. PBMC+LPS (5 ug/ml)+YDE-011 50 nM • 22. PBMC+LPS (5 ug/ml)+YDE-011 5 nM • 23. PBMC+LPS (5 ug/ml)+YDE-011 0.5 nM • 24. PBMC+LPS (5 ug/ml)+YDE-011 0.05 nM • 25. PBMC+LPS (5 ug/ml)+YDE-011 0.005 nM • 26. PBMC+LPS (5 ug/ml)+YDE-043 500 nM • 27. PBMC+LPS (5 ug/ml)+YDE-043 50 nM • 28. PBMC+LPS (5 ug/ml)+YDE-043 5 nM • 29. PBMC+LPS (5 ug/ml)+YDE-043 0.5 nM • 30. PBMC+LPS (5 ug/ml)+YDE-043 0.05 nM • 31. PBMC+LPS (5 ug/ml)+YDE-043 0.005 nM
(§3) Multiplex assay was used to measure 30 cytokines and chemokines. The 1:200 diluted cell supernatant and serial dilution of the standard were dispensed into a 96 well plate at 50 ul/well. Then, the pre-mixed cocktail of antibody-coated magnetic beads was dispensed at 50 ul/well and incubated at room temperature for 2 h in a horizontal orbital microplate shaker at 800±500 rpm. The beads were washed using a magnetic device to prevent loss. The biotin-antibody was dispensed in 50 ul of each well and incubated at room temperature for 1 h in a shaker at 800±500 rpm. After washing, streptavidin-PE was added at 50 ul/well and incubated at room temperature for 30 min in a shaker under the same conditions. Finally, after washing, wash buffer (100 ul/well) was added to the plate and incubated in a shaker for 2 min. The Luminex™ 200 setting were set according to the manufacturer's protocol. The data was calculated with a standard five-parameter logistic nonlinear regression analysis of the data (xPonent software 4.2, USA). Results were presented as concentration (ng/ml or pg/ml).

For a further experiment, the system named is TIMP-1. Description: Example 8 main study Luminex, LPS hPBMCs: TIMP-1. The format is cell-based, human. As to conditions: PBMC + LPS(5 ug/ml). The protocol:
as §1, §2, §3

Consider `CC(C)C[C@H](NC(=O)CNC(=O)[C@H](CC(C)C)NC(=O)[C@H](CCC(N)=O)NC(=O)CNC(=O)[C@@H]1C[C@@H](O)CN1)C(=O)N[C@@H](C)C(=O)NCC(=O)N1CCC[C@H]1C(=O)N[C@@H](CCCCN)C(=O)O` [YDE-011] (H-[Hyp]GQLGLAGPK-OH), for which the “Leptin Concentration (pg/ml), Mean” value in the experiment on Leptin (test article 0.005 nM) turned out to be 14975.6 pg/mL; in the experiment with Leptin (test article 0.05 nM), 14835.2 pg/mL; in the experiment with Leptin (test article 0.5 nM), 9683.0 pg/mL; with Leptin (test article 5 nM), 10777.7 pg/mL; in the experiment with Leptin (test article 50 nM), 12358.1 pg/mL; with Leptin (test article 500 nM), 13896.3 pg/mL. In addition, the “Leptin Concentration (pg/ml), single replicates” value is 17222.7 pg/ml (2×) and 10481.4 pg/ml in the experiment on Leptin (test article 0.005 nM); 19789.4 pg/mL and 10481.4 pg/mL and 14234.9 pg/mL in the experiment with Leptin (test article 0.05 nM); 10481.4 pg/mL and 4332.6 pg/mL and 14234.9 pg/mL with Leptin (test article 0.5 nM); <98.95 pg/mL and 4332.6 pg/mL and 17222.7 pg/mL in the experiment with Leptin (test article 5 nM); 10481.4 pg/mL and 14234.9 pg/mL and <98.95 pg/mL with Leptin (test article 50 nM); 19789.4 pg/mL and <98.95 pg/mL and 8003.2 pg/mL in the experiment with Leptin (test article 500 nM). Moreover, the “TIMP-1 Concentration (pg/ml), Mean” value in the experiment on TIMP-1 (test article 0.005 nM) is 4036.4 pg/mL; in the experiment with TIMP-1 (test article 0.05 nM) it was 4288.3 pg/mL; in the experiment with TIMP-1 (test article 0.5 nM) it was 4080.2 pg/mL; with TIMP-1 (test article 5 nM), 4128.5 pg/mL; in the experiment with TIMP-1 (test article 50 nM), 4253.6 pg/mL; with TIMP-1 (test article 500 nM), 3820.5 pg/mL. Besides, the “TIMP-1 Concentration (pg/ml), single replicates” value is 4259.2 pg/ml (2×) and 3590.9 pg/ml with TIMP-1 (test article 0.005 nM); 4414.6 pg/mL and 3590.9 pg/mL and 4859.3 pg/mL with TIMP-1 (test article 0.05 nM); 3590.9 pg/mL and 3935.4 pg/mL and 4714.4 pg/mL in the experiment with TIMP-1 (test article 0.5 nM); 4859.3 pg/mL and 3935.4 pg/mL and 3590.9 pg/mL in the experiment on TIMP-1 (test article 5 nM); 3935.4 pg/mL and 4259.2 pg/mL and 4566.3 pg/mL with TIMP-1 (test article 50 nM); 3935.4 pg/ml (2×) and 3590.9 pg/ml with TIMP-1 (test article 500 nM).

As for `CC(C)C[C@H](NC(=O)[C@H](CCC(N)=O)NC(=O)CNC(=O)[C@@H]1C[C@@H](O)CN1)C(=O)NCC(=O)O` [YDE-043] (H-[Hyp]GQLG-OH; N-terminus and C-terminus assumed), the “Leptin Concentration (pg/ml), Mean” value with Leptin (test article 0.005 nM) was determined as 19724.6 pg/mL; in the experiment with Leptin (test article 0.05 nM), 10481.4 pg/mL; with Leptin (test article 0.5 nM), 15646.1 pg/mL; in the experiment on Leptin (test article 5 nM) it was 15505.7 pg/mL; in the experiment on Leptin (test article 50 nM), 18458.0 pg/mL; in the experiment on Leptin (test article 500 nM), 10678.9 pg/mL. Further, the “Leptin Concentration (pg/ml), single replicates” value is 18547.4 pg/ml (2×) and 22079.2 pg/ml with Leptin (test article 0.005 nM); 10481.4 pg/ml and <98.95 pg/ml (2×) with Leptin (test article 0.05 nM); 12493.0 pg/ml and 17222.7 pg/ml (2×) with Leptin (test article 0.5 nM); 19789.4 pg/mL and 12493.0 pg/mL and 14234.9 pg/mL in the experiment with Leptin (test article 5 nM); 15795.3 pg/ml and 19789.4 pg/ml (2×) in the experiment with Leptin (test article 50 nM); 17222.7 pg/mL and 4332.6 pg/mL and 10481.4 pg/mL in the experiment on Leptin (test article 500 nM). The “TIMP-1 Concentration (pg/ml), Mean” value amounted to 4681.6 pg/mL in the experiment on TIMP-1 (test article 0.005 nM); 4088.2 pg/mL in the experiment on TIMP-1 (test article 0.05 nM); 4203.1 pg/mL in the experiment with TIMP-1 (test article 0.5 nM); 4463.9 pg/mL in the experiment on TIMP-1 (test article 5 nM); 4351.3 pg/mL in the experiment on TIMP-1 (test article 50 nM); 4299.5 pg/mL with TIMP-1 (test article 500 nM). Also, the “TIMP-1 Concentration (pg/ml), single replicates” value was 3935.4 pg/mL and 5543.0 pg/mL and 4566.3 pg/mL in the experiment on TIMP-1 (test article 0.005 nM); 4259.2 pg/mL and 4414.6 pg/mL and 3590.9 pg/mL with TIMP-1 (test article 0.05 nM); 4259.2 pg/mL and 4414.6 pg/mL and 3935.4 pg/mL in the experiment on TIMP-1 (test article 0.5 nM); 4566.3 pg/ml (2×) and 4259.2 pg/ml in the experiment with TIMP-1 (test article 5 nM); 3935.4 pg/mL and 4859.3 pg/mL and 4259.2 pg/mL in the experiment on TIMP-1 (test article 50 nM); 4566.3 pg/ml (2×) and 3766.0 pg/ml in the experiment on TIMP-1 (test article 500 nM).

Source of the values: US20230146455A1, “TREATMENT OF INFLAMMATORY DISEASES WITH PEPTIDES AND PHARMACEUTICAL COMPOSITIONS” (Yuyu Pharma, Inc., priority 2020, published 2023).
